Activity calls are given as the source filed them. Cut-off read from the data, not from the text of the source, for most assays here: actives have a measured EC50 and inactives only a lower limit.
System: not listed separately
Test: NIH-3T3 fibroblast cytotoxicity, dose response, cytotoxicity control, cell-based, fluorescence, Alamar Blue, secondary assay (AID 2327);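 note: NIH-3T3 mouse fibroblasts cultured with fluconazole at 8 µg/mL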
Format: functional
Details: not given

Row | Structure (SMILES) | EC50
1 | O=c1cc(-c2c(F)c(F)c(F)c(F)c2F)oc2c(F)c(F)c(F)c(F)c12 | 2.66 µM (inconclusive)

Molecular target: T1, Streptokinase A (Streptococcus pyogenes serotype M1, UniProt P10520)
T1 sequence (P10520 whole entry): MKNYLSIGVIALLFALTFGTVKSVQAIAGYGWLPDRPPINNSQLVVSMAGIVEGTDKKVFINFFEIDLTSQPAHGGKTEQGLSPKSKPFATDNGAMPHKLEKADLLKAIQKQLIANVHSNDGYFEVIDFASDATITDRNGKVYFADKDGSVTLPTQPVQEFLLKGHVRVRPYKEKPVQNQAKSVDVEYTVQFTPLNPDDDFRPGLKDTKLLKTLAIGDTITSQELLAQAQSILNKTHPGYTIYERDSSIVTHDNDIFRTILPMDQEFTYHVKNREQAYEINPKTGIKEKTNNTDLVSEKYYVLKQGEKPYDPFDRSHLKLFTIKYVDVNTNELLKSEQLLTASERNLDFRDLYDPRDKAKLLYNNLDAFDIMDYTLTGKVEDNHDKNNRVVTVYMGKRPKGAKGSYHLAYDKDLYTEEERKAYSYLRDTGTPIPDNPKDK
Test: S. pyogenes streptokinase expression inhibitors, potency, dose response, plasminogen activation absorbance, OD405 (AID 1914);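 note: secreted streptokinase activity via plasminogen activation per viability signal from cell pellet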
Format: functional, Streptococcus pyogenes M1 GAS
Details: not given

Row | Structure (SMILES) | EC50
2 | CC(C)(C)[C@@H]1CCC(=O)N(CC[C@H](Sc2ccccc2)c2ccccc2)CC1 | > 150 µM (not active)

System: not listed separately
Test: cytotoxicity toward NIH3T3 fibroblasts, dose response, counter-screen, cell-based, ATP luminescence, mouse fibroblasts (AID 2010);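 note: cells exposed to compound for about 90 hours before reading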
Format: functional
Details: not given

Row | Structure (SMILES) | EC50
3 | O=c1cc(-c2c(F)c(F)c(F)c(F)c2F)oc2c(F)c(F)c(F)c(F)c12 | 1.04 µM (active)
4 | Cc1ccccc1-n1c(SCC(=O)N/N=C/c2c(C)nn(-c3ccccc3)c2C)nc2ccccc2c1=O | > 60 µM (not active)

Molecular target: T2, Protein RecA (Mycobacterium tuberculosis, UniProt P9WHJ3)
T2 sequence (P9WHJ3 whole entry): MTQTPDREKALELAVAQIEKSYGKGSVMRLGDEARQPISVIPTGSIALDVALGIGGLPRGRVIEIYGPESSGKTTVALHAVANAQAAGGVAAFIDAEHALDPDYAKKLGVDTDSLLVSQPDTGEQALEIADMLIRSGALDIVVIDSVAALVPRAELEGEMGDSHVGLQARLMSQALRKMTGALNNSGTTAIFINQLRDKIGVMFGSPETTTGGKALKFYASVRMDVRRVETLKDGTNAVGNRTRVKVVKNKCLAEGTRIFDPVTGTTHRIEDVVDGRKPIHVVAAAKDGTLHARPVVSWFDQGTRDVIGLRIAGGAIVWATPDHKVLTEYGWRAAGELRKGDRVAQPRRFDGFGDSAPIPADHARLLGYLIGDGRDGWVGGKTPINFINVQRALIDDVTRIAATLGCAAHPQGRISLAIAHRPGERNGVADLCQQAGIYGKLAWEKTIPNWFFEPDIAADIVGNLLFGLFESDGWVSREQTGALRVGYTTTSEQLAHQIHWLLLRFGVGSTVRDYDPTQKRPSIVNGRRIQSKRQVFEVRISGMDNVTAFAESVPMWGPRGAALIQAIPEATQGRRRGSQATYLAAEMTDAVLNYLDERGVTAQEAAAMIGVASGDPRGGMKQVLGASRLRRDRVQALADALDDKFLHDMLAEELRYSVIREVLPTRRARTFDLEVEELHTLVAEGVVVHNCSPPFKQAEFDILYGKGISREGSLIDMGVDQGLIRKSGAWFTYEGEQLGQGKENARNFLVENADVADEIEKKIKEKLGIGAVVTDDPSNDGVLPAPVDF
Test: Fluorescence Cell-Free Homogeneous Dose Retest to Identify Inhibitors of RecA-Intein Splicing Activity. [Related pubchem assays (depositor defined):AID2097, AID2223, AID489010, AID492950]
Format: functional
Details: not given

Row | Structure (SMILES) | EC50
5 | COc1ccc(S(=O)(=O)c2cnc3ccccc3n2)cc1 | 16.4 µM (active)
6 | CCn1c(COc2cccc3ccccc23)nnc1SCC(N)=O | > 380 µM (inactive)
7 | O=c1cc(-c2c(F)c(F)c(F)c(F)c2F)oc2c(F)c(F)c(F)c(F)c12 | 2.92 µM (active)
8 | Cc1ccc2nc(-c3cccs3)oc(=O)c2c1 | 60.5 µM (active)
9 | CCOc1cc(/C=C2/C(=N)N3C(=NC2=O)SN=C3S(=O)(=O)C(C)C)ccc1OC(=O)c1ccco1 | 18.6 µM (active)
10 | COC(=O)C(C)Sc1ncnc2c1nnn2-c1ccc(F)cc1 (stereo not given) | 5.09 µM (active)
11 | NC(=O)CC[C@@H]1NC(=O)[C@H](CO)NC(=O)c2cc([N+](=O)[O-])cc(I)c2NCC[C@@H](C(N)=O)NC1=O | 13.3 µM (active)
12 | Cc1nn(Cc2ccccc2)c2c1C(c1cccnc1)C(C#N)=C(N)O2 (stereo not given) | 2.78 µM (active)
13 | CC(C)S(=O)(=O)C1=NSC2=NC(=O)/C(=C\c3ccc(OC(=O)c4ccco4)cc3)C(=N)N21 | 10.9 µM (active)
14 | CC1=NN(c2ccc(N)cc2)C(=O)C1 | 1.78 µM (active)
15 | O=C1NC(c2ccc(-c3ccccc3[N+](=O)[O-])o2)C(C(=O)c2ccc(F)cc2)C(O)(C(F)(F)F)N1 (stereo not given) | > 380 µM (inconclusive)
16 | Cc1nc2c(-c3ccc(F)cc3)c(C)nn2c(O)c1Cl | 11 µM (active)

System: not listed separately
Test: Luminescence Cell-Based Dose Retest to Confirm Inhibitors of Cancer Stem Cells. [Related pubchem assays (depositor defined):AID2717, AID2721]
Format: functional
Details: Homo sapiens

Row | Structure (SMILES) | AC50
17 | CC(C)(C)[C@@H]1CCC(=O)N(CC[C@H](Sc2ccccc2)c2ccccc2)CC1 | 3.92 µM (active)

System: not listed separately
Test: microbe, parasite or virus in culture
Format: functional
Details: Mycobacterium tuberculosis

Row | Structure (SMILES) | CC50
18 | CCOC(=O)CN=C(S)n1cnc(N)n1 | > 40 µM (active)
19 | CC(C(=O)NC(=O)NC1CCCCC1)N(C)CC(=O)Nc1ccc(F)c(F)c1F (stereo not given) | 25.8 µM (active)
20 | Cc1ccccc1-n1c(SCC(=O)N/N=C/c2c(C)nn(-c3ccccc3)c2C)nc2ccccc2c1=O | > 40 µM (active)

System: not listed separately
Test: growth suppression of PTEN-null colon cells, dose response, cell-based, HCT116 PTEN knockout (AID 1047);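 note: HCT116 colon tumor cells with PTEN knocked out; cells exposed to compound for 60 hours before readout; potency for loss of cell viability measured by luminescence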
Format: functional
Details: not given

Row | Structure (SMILES) | EC50
21 | O=c1cc(-c2c(F)c(F)c(F)c(F)c2F)oc2c(F)c(F)c(F)c(F)c12 | 5.95 µM (active)

System: Streptococcus
Test: Group A Streptococcus viability loss, dose response, counter-screen for streptokinase expression inhibitor project, luminescence, BacTiterGlo (AID 1915);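 note: potency for reduction of bacterial viability or growth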
Format: functional, organism-based
Details: not given

Row | Structure (SMILES) | EC50
22 | CC(C)(C)[C@@H]1CCC(=O)N(CC[C@H](Sc2ccccc2)c2ccccc2)CC1 | 5.87 µM (active)

System: not listed separately
Test: inhibitors of intracellular T. cruzi replication, confirmation, NIH3T3 host cells, beta-gal luminescence (AID 2044);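 note: intracellular parasites grown in NIH/3T3 mouse fibroblasts as host cells; luminescent beta-galactosidase reporter signal from transgenic T. cruzi replicating inside host cells; inhibitors lower the luminescence signal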
Format: functional, cell-based
Details: not given

Row | Structure (SMILES) | EC50
23 | O=c1cc(-c2c(F)c(F)c(F)c(F)c2F)oc2c(F)c(F)c(F)c(F)c12 | 663 nM (active)
24 | Cc1ccccc1-n1c(SCC(=O)N/N=C/c2c(C)nn(-c3ccccc3)c2C)nc2ccccc2c1=O | 1600 nM (active)

System: not listed separately
Test: C. albicans growth with fluconazole, confirmation, fluorescence, retest (AID 2467)
Format: functional, cell-based
Details: not given

Row | Structure (SMILES) | EC50
25 | O=c1cc(-c2c(F)c(F)c(F)c(F)c2F)oc2c(F)c(F)c(F)c(F)c12 | 520 nM (active)

Molecular target: T3, Heat shock factor protein 1 (Mus musculus, UniProt P38532)
T3 sequence (P38532 whole entry): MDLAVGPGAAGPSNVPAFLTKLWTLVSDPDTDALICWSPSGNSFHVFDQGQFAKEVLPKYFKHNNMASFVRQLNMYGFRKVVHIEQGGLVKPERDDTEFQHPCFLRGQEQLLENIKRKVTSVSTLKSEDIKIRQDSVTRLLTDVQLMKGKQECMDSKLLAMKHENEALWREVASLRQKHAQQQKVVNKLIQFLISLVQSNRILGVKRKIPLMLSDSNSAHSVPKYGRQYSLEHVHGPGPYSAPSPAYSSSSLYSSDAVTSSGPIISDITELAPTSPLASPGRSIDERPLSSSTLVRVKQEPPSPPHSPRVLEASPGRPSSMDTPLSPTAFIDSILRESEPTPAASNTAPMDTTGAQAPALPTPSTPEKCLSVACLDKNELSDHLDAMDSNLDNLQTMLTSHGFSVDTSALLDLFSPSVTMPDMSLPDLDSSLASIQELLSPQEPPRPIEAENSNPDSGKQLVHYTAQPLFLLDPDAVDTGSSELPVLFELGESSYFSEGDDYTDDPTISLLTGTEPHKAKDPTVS
Test: HSF1 potentiators in luciferase reporter cells, confirmation, cell-based, NIH3T3, luminescence, dose retest (AID 435004);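 note: stress induced by proteasome inhibitor MG132 added 30 min after compound; luciferase reporter driven by HSF1 response element in NIH3T3 cells; actives raise luminescence as potentiators of the MG132 stress response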
Format: functional
Details: not given

Row | Structure (SMILES) | EC50
26 | COC(=O)C(C)Sc1ncnc2c1nnn2-c1ccc(F)cc1 (stereo not given) | 11.6 µM (active)

System: Streptococcus sp. 'group A'
Test: growth inhibition of control SK(-) GAS strain, dose response, counter-screen for streptokinase expression inhibitor project, luminescence, kanamycin, BacTiterGlo, confirmation (AID 1900)
Format: functional, organism-based
Details: not given

Row | Structure (SMILES) | EC50
27 | CC(C)(C)[C@@H]1CCC(=O)N(CC[C@H](Sc2ccccc2)c2ccccc2)CC1 | 6.49 µM (active)

Molecular target: T4, Replicative DNA helicase DnaB (Mycobacterium tuberculosis, UniProt P9WMR3)
T4 sequence (P9WMR3 whole entry): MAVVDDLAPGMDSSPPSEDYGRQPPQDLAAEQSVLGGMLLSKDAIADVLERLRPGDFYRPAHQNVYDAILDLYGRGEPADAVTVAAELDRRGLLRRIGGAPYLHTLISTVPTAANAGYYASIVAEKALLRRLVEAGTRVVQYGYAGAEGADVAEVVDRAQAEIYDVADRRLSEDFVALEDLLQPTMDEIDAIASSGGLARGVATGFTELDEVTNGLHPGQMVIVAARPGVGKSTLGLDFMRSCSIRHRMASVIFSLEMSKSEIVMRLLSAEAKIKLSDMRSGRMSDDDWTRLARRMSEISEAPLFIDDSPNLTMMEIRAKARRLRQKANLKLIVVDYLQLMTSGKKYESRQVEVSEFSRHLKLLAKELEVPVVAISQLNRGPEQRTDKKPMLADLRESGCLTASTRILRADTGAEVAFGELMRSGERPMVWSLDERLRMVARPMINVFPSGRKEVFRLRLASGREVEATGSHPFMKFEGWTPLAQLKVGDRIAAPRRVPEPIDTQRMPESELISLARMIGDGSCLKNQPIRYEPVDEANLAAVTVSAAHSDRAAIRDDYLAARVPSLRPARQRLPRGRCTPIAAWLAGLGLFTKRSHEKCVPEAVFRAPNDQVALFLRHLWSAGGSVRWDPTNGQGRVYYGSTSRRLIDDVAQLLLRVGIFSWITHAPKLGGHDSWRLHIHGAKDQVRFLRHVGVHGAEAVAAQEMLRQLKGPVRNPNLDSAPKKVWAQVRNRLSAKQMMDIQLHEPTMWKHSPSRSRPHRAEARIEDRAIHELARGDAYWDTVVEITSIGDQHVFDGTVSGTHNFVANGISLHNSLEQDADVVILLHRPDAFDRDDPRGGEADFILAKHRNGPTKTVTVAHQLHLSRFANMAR
Test: DnaB intein splicing inhibitors, dose response, biochemical, cell-free fluorescence (AID 449749)
Format: functional
Details: not given

Row | Structure (SMILES) | AC50
28 | COc1ccc(S(=O)(=O)c2cnc3ccccc3n2)cc1 | 54.1 µM (active)
29 | CCn1c(COc2cccc3ccccc23)nnc1SCC(N)=O | 273 µM (active)
30 | O=c1cc(-c2c(F)c(F)c(F)c(F)c2F)oc2c(F)c(F)c(F)c(F)c12 | 7.17 µM (active)
31 | Cc1ccc2nc(-c3cccs3)oc(=O)c2c1 | 117 µM (active)
32 | CCOc1cc(/C=C2/C(=N)N3C(=NC2=O)SN=C3S(=O)(=O)C(C)C)ccc1OC(=O)c1ccco1 | > 380 µM (inactive)
33 | COC(=O)C(C)Sc1ncnc2c1nnn2-c1ccc(F)cc1 (stereo not given) | 5.57 µM (active)
34 | NC(=O)CC[C@@H]1NC(=O)[C@H](CO)NC(=O)c2cc([N+](=O)[O-])cc(I)c2NCC[C@@H](C(N)=O)NC1=O | 47.5 µM (active)
35 | Cc1nn(Cc2ccccc2)c2c1C(c1cccnc1)C(C#N)=C(N)O2 (stereo not given) | 8.8 µM (active)
36 | CC(C)S(=O)(=O)C1=NSC2=NC(=O)/C(=C\c3ccc(OC(=O)c4ccco4)cc3)C(=N)N21 | 17 µM (active)
37 | CC1=NN(c2ccc(N)cc2)C(=O)C1 | 2.41 µM (active)
38 | O=C1NC(c2ccc(-c3ccccc3[N+](=O)[O-])o2)C(C(=O)c2ccc(F)cc2)C(O)(C(F)(F)F)N1 (stereo not given) | 13.3 µM (active)
39 | Cc1nc2c(-c3ccc(F)cc3)c(C)nn2c(O)c1Cl | 31.1 µM (active)

System: not listed separately
Test: growth suppression of beta-catenin-knockout colon cells, dose response, cell-based, HCT116, human colon tumor (AID 1045);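 note: HCT116 colon tumor cells with beta catenin knocked out; cells exposed to compound for 60 hours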
Format: functional
Details: not given

Row | Structure (SMILES) | EC50
40 | O=c1cc(-c2c(F)c(F)c(F)c(F)c2F)oc2c(F)c(F)c(F)c(F)c12 | 3.37 µM (active)

From ChEMBL document CHEMBL1201862, “PubChem BioAssay data set” (2004)
